Test results published in US9597315B2, “1-heteroaryl-3-azabicyclo[3.1.0]hexanes, methods for their preparation and their use as medicaments” (EUTHYMICS BIOSCIENCE, INC., priority 2007, dated 2017).

Key:
Type in all cases: cell-based
human 5-HT transporter = biological target: T1, human 5-HT transporter (Homo sapiens, UniProt P31645); assay: Inhibition of [3H]5-HT uptake in cells expressing the recombinant human 5-HT transporter; conditions: HEK 293 cells expressing the 5-HT transporter; for inhibition at 1 µM: HEK293, 1 μM compound, read-out: Uptake inh. % at 1 μM 5-HT
T1 construct: expressed in transfected cells; host or cells: HEK 293 cells
T1 sequence (P31645 whole entry): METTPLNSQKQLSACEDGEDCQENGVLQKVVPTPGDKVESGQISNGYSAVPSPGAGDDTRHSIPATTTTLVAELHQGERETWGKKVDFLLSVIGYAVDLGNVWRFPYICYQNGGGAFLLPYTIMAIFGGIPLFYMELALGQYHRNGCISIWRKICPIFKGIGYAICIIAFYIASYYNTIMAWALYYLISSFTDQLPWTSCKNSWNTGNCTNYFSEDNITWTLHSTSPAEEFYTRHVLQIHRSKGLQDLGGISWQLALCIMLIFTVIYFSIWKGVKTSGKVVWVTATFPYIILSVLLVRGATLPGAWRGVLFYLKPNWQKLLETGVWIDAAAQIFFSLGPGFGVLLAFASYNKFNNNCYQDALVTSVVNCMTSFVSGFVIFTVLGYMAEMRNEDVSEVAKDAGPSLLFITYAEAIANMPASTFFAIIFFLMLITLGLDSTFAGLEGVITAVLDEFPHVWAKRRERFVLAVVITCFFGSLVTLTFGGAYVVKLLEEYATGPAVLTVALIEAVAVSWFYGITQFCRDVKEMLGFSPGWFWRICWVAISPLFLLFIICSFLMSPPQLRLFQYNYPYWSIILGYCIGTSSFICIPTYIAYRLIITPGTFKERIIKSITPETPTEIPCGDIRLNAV
Protocol: (§1) The ability of the 1-heteroaryl-3-azabicyclo[3.1.0.]hexane of the invention for inhibiting transport of norepinephrine (NE) and/or dopamine (DA) and/or serotonin (5-HT) were evaluated using cell lines (such as the HEK 293 cell line) that stably express recombinant human NE, DA, and 5-HT transporters, respectively. The techniques for stably transfecting mammalian cell lines with neurotransmitter transporters and measuring the effects of drugs on amine uptake have been described in the literature (e.g., Gu, H., et al. J. Biol. Chem. 269:7124-7130, 1994; Eshleman A J, J Pharmacol Exp Ther 289:877-885, 1999) and well known to those skilled in the art.
(§2) A basic technique for measuring the ability of a compound to inhibit [^3H]NE, DA, and 5-HT uptake in cell lines recombinantly expressing human transporters has been described (Eshleman, et al., 1999). In brief, cell suspensions (HEK 293 cells expressing the 5-HT transporter; MDCK cells expressing the NE transporter, and CHO-K1 cells expressing the DA transporter, respectively) can be prepared for assay by removing the medium from cells grown on tissue culture dishes, then washing the plates with buffered medium. Cells can then be gently scraped from the plates and cell clusters separated by trituration with a pipette for 5-10 aspiration/ejection cycles. To these cell suspensions were added test drugs (final concentrations generally from 0.01-5 μM) and Tris/Hepes buffer, pH 7.1 (also containing 120 mM NaCl, 1.2 mM CaICl2, 1.2 mM MgSO4, 5 mM D-glucose, and 1 mM ascorbic acid). Following a preincubation of the isolated cells at 25° C., either [^3H]DA, [^3H]5-HT, or [^3H]NE was added and the incubation continued an additional 10 minutes. Radiolabelled neurotransmitter uptake was terminated by vacuum filtration and washing through Whatman glass fiber filters (GF/C), and the radioactivity retained on the filters was measured by liquid scintillation spectrometry. Specific uptake was defined as the difference in uptake observed in the absence and presence of a large molar excess of nomifensine, desipramine, or fluoxetine (for [^3H]DA, [^3H]NE or [^3H]5-HT, respectively].
(§3) The results of these assays are shown in Table 2, below, which indicates, for each of the exemplary compounds, the structure of the substituent, and levels of observed uptake inhibition percentage for each of the indicated neurotransmitters at a fixed concentration of compound, or the IC50 value, defined as that concentration of compound necessary to inhibit uptake by 50%. These are standard terms known to those skilled in the art.

human DA transporter = biological target: T2, human DA transporter (Homo sapiens, UniProt Q01959); assay: Inhibition of [3H]DA uptake in cells expressing the recombinant human DA transporter; conditions: CHO-K1 cells expressing the DA transporter; for inhibition at 1 µM: 1 μM compound, read-out: Uptake inh. % at 1 μM DA
T2 construct: expressed in transfected cells; host or cells: CHO-K1 cells
T2 sequence (Q01959 whole entry): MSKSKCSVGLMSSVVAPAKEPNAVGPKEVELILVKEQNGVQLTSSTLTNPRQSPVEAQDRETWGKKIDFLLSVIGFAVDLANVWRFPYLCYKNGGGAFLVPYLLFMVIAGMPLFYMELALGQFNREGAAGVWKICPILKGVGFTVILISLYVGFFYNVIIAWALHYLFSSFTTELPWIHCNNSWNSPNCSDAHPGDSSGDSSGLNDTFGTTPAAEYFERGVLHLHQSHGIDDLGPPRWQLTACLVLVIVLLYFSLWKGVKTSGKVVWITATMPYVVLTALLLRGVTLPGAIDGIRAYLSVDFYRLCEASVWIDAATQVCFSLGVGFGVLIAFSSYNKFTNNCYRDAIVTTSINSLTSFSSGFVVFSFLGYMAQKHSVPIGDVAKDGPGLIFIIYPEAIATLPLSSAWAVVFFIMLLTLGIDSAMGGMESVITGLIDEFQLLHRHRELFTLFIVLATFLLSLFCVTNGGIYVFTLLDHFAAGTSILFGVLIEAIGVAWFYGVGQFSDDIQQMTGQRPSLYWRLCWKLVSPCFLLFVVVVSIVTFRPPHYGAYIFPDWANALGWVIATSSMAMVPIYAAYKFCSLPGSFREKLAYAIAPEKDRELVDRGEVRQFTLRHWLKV
Protocol: as §1, §2, §3

human NE transporter = biological target: T3, human NE transporter (Homo sapiens, UniProt P23975); assay: Inhibition of [3H]NE uptake in cells expressing the recombinant human NE transporter; conditions: MDCK cells expressing the NE transporter; for inhibition at 1 µM: 1 μM compound, read-out: Uptake inh. % at 1 μM NE
T3 construct: expressed in transfected cells; host or cells: MDCK cells
T3 sequence (P23975 whole entry): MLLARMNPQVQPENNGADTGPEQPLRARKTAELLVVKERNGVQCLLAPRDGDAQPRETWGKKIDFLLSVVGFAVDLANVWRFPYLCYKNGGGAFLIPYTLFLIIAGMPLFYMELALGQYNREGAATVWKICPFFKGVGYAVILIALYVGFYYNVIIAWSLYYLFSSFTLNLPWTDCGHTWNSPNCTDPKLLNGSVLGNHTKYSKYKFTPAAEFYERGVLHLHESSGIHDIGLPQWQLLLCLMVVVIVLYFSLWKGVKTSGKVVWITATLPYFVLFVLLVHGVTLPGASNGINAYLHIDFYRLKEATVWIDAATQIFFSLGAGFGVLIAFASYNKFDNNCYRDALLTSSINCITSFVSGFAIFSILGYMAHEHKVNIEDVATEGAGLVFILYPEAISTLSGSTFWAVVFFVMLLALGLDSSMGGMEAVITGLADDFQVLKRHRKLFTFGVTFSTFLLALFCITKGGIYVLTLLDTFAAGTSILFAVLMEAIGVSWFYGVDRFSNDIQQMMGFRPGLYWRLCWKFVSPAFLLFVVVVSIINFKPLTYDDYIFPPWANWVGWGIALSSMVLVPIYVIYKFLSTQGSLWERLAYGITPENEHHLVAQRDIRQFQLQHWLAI
Protocol: as §1, §2, §3

Row | Compound | inhibition at 1 µM (human 5-HT transporter) [%] | inhibition at 1 µM (human DA transporter) [%] | inhibition at 1 µM (human NE transporter) [%] | IC50 (human 5-HT transporter) [nM] | IC50 (human DA transporter) [nM] | IC50 (human NE transporter) [nM]
1 | Cc1ccc(C23CNCC2C3)s1 (stereo not drawn) | 35 | 20 | 59 |  |  | 
2 | CN1CC2CC2(c2cc3cc(F)ccc3s2)C1 (stereo not drawn) | 94 | 63 | 70 |  |  | 
3 | Fc1ccc2sc(C34CNCC3C4)cc2c1 (stereo not drawn) | 98 | 78 | 91 |  |  | 
4 | c1ccc2sc(C34CNCC3C4)cc2c1 (stereo not drawn) | 66 | 91 | 90 | 88 | 82 | 20
5 | CN1CC2CC2(c2csc3ccc(Cl)cc23)C1 (stereo not drawn) | 50 | 1 | 39 |  |  | 
6 | CC(C)N1CC2CC2(c2cc3ccccc3n2C)C1 (stereo not drawn) | 83 | 7 | 13 |  |  | 
7 | CN1C[C@H]2C[C@]2(c2cc3ccccc3s2)C1 | 89 | 83 | 75 | 263 | 195 | 107
8 | c1cnc2ccc(C34CNCC3C4)cc2c1 (stereo not drawn) | 63 | 17 | 68 |  |  | 
9 | CN1CC2CC2(c2ccc3ncccc3c2)C1 (stereo not drawn) | 93 | 12 | 13 |  |  | 
10 | CN1CC2CC2(c2cc3ccccc3o2)C1 (stereo not drawn) |  |  |  | 340 | 630 | 400
11 | CN1CC2CC2(c2ccc3c(ccn3C)c2)C1 (stereo not drawn) | 71 | 45 | 53 | 154 | 811 | 186
12 | c1ccc2sc([C@@]34CNC[C@H]3C4)cc2c1 | 76 | 90 | 84 | 481 | 149 | 99
13 | CN1C[C@H]2C[C@@]2(c2cc3ccccc3s2)C1 | 99 | 82 | 89 | 54 | 224 | 71
14 | CCN1CC2CC2(c2cc3ccccc3n2C)C1 (stereo not drawn) | 65 | 32 | 29 |  |  | 
15 | c1ccc2sc(C34CNCC3C4)nc2c1 (stereo not drawn) | 7 | 5 | 72 |  |  | 
16 | CN1CC2CC2(c2cc3ccccc3s2)C1 (stereo not drawn) | 92 | 88 | 71 | 34 | 98 | 60
17 | Clc1ccc2scc(C34CNCC3C4)c2c1 (stereo not drawn) | 18 | 13 | 50 |  |  | 
18 | c1ccc2ncc(C34CNCC3C4)cc2c1 (stereo not drawn) | 14 | 10 | 64 |  |  | 
19 | CN1CC2CC2(c2cc3ccc(F)cc3s2)C1 (stereo not drawn) | 99 | 94 | 88 |  |  | 
20 | CCN1CC2CC2(c2ccc3c(ccn3C)c2)C1 (stereo not drawn) | 59 | 65 | 39 | 308 | 215 | 138
21 | Fc1ccc2cc(C34CNCC3C4)sc2c1 (stereo not drawn) | 100 | 99 | 98 |  |  | 
22 | c1ccc2c(C34CNCC3C4)coc2c1 (stereo not drawn) | 57 | 63 | 77 | 188 | 770 | 82
23 | c1ccc2sc([C@]34CNC[C@H]3C4)cc2c1 | 96 | 90 | 97 | 193 | 52 | 14
24 | CN1CC2CC2(c2coc3ccccc23)C1 (stereo not drawn) | 45 | 67 | 82 | 1450 | 475 | 138
25 | CN1CC2CC2(c2cc3ccccc3n2C)C1 (stereo not drawn) | 64 | 19 | 35 |  |  | 
